Earlier results, collected in patent US20220175718A1, “TRANSDERMAL PHARMACEUTICAL FORMULATIONS FOR THE TREATMENT OF CANCER” (PIKE THERAPEUTICS, INC., priority 2020, published 2022).

What was measured:
CB2 = CB2 (Homo sapiens, UniProt P34972); conditions: for selectivity for CB2 over CB1: given as ×, fold or times
CB1 = CB1 (Homo sapiens, UniProt P21554)
CB1, sequence (P21554 whole entry, species assumed): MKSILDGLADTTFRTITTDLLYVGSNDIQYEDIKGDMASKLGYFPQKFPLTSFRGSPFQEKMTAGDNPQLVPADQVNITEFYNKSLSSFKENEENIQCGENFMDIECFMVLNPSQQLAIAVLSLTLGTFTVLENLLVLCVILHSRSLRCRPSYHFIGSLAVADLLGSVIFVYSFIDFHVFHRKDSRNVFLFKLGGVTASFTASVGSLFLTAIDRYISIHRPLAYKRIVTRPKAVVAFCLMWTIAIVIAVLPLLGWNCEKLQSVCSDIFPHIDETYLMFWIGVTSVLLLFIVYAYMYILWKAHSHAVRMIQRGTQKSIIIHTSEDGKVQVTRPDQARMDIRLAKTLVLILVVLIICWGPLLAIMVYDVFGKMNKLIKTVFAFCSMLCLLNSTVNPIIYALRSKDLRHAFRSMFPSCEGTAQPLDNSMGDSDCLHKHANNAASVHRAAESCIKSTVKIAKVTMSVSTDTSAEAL

CB2, sequence (P34972 whole entry, species assumed): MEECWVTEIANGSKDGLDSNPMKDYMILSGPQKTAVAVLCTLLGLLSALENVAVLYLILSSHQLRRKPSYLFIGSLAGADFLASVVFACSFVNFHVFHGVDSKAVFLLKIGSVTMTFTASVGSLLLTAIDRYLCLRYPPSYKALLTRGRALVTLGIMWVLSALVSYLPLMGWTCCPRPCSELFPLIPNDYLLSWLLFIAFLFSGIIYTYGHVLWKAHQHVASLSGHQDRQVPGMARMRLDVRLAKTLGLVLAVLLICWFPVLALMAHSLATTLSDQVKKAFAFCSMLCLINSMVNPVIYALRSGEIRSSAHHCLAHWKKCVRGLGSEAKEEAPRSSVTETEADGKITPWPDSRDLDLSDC

CCCCCn1cc(C(=O)c2cccc3cccc(Br)c23)c2ccccc21 [JWH-424]
Ki (CB2): 5.44 nM
Ki (CB1): 20.9 nM

CCCn1c(C)c(C(=O)c2ccc(C)c3ccccc23)c2ccccc21 [JWH-148]
selectivity for CB2 over CB1 (CB2): more than 8

CCCCCCC(C)(C)c1cc(O)c2c(c1)oc(=O)c1ccc(OC)cc12 [AM-1710]
selectivity for CB2 over CB1 (CB2): 54

CCCCCn1cc(C(=O)c2ccc(Cl)c3ccccc23)c2ccccc21 [JWH-398]
Ki (CB2): 2.8 nM
Ki (CB1): 2.3 nM

CCCCCCC(C)(C)c1cc(OC)c2c(c1)OC(C)(C)C1CCC(O)CC21 (stereo not drawn) [JWH-350, 11-nor-1-methoxy-3-(1′,1′-dimethylheptyl)-9α-hydroxyhexahydrocannabinol]
selectivity for CB2 over CB1 (CB2): 33

CCCn1cc(C(=O)c2ccc(C)c3ccccc23)c2ccccc21 [JWH-120]
selectivity for CB2 over CB1 (CB2): 173
